Assay results as given in ChEMBL document CHEMBL4665697, “Synthesis of the Major Mammalian Metabolites of THCV” (J Nat Prod, 2020).

Tests used:
[1] = biological target: Cannabinoid receptor 1 (Homo sapiens, UniProt P21554); assay: Displacement of [3H]-CP-55,940 from recombinant human CB1R expressed in HEK293 cell membranes after 90 mins; parameters: species or system Cell membrane
[2] = biological target: Cannabinoid receptor 2 (Homo sapiens, UniProt P34972); assay: Displacement of [3H]-CP-55,940 from recombinant human CB2R expressed in HEK293 cell membranes after 90 mins; parameters: species or system Cell membrane
Chain of Cannabinoid receptor 2 (P34972 whole entry): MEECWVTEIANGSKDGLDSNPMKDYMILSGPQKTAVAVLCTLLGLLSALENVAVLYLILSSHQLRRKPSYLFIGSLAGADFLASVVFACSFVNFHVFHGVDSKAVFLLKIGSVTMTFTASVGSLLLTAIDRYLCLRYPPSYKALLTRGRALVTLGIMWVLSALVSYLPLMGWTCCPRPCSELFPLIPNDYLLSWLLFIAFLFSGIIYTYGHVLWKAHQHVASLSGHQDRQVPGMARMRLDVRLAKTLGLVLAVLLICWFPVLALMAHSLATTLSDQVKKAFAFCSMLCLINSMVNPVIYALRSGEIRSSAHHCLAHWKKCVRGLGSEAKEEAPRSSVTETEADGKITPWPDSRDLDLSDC

Chain of Cannabinoid receptor 1 (P21554 whole entry): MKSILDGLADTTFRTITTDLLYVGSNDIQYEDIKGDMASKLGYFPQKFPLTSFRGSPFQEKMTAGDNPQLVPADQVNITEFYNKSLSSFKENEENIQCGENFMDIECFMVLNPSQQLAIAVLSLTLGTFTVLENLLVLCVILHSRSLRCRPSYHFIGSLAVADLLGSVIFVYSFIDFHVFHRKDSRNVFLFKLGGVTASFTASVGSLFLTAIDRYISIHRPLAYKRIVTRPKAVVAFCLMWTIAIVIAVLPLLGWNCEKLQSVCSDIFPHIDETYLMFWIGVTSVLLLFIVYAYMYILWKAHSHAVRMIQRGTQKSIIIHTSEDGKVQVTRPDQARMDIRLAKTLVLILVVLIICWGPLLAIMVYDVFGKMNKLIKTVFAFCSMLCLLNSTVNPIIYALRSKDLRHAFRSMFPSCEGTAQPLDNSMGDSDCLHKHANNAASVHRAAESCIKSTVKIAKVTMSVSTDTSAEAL

Row | Structure (SMILES) | IC50 [1] | Ki [1] | IC50 [2] | Ki [2]
1 | CCCc1cc(O)c2c(c1)OC(C)(C)[C@@H]1C[C@@H](O)C(C)=C[C@@H]21 | > 10000 nM | > 10000 nM | > 10000 nM | > 10000 nM
2 | CCCc1cc(O)c2c(c1)OC(C)(C)[C@@H]1CCC(C)=C[C@@H]21 [TETRAHYDROCANNABIVARIN] | 13.1 nM | 1.5 nM | 17.6 nM | 2.8 nM
3 | CCCc1cc(O)c2c(c1)OC(C)(C)[C@@H]1C[C@H](O)C(C)=C[C@@H]21 | 230 nM | 25.6 nM | 808 nM | 128 nM
4 | CCCc1cc(O)c2c(c1)OC(C)(C)[C@@H]1CCC(CO)=C[C@@H]21 | 22.7 nM | 2.5 nM | 29.8 nM | 4.7 nM
5 | CCCc1cc(O)c2c(c1)OC(C)(C)[C@@H]1CCC(C(=O)O)=C[C@@H]21 | 1680 nM | 187 nM | 3720 nM | 590 nM
